Reference: patent US6683201B2, “Analine derivatives as OSC inhibitors” (Hoffmann-La Roche Inc., priority 2000, dated 2004)

**Q.** Which melting point does the source give for CN(C)CCCCOc1ccc(N(C)S(=O)(=O)c2ccc(C(F)(F)F)cc2)cc1 [Example 14.1, N-[4-(4-Dimethylamino-butoxy)-phenyl]-N-methyl-4-trifluoromethyl-benzenesulfonamide] here?
**A.** 151 to 153 °C
